{
  "source": "paper PMC9453066",
  "about": "“Targeted control of pneumolysin production by a mobile genetic element in Streptococcus pneumoniae” (Microbial Genomics, 2022)",
  "system": "ZomB",
  "conditions": "saturating ssDNA (poly(dT)); 1 mM MgCl2, 50 mM NaCl, 2 mM DTT, 20 mM Tris-Cl pH 8.0, 25 °C; 50 nM ZomB",
  "data": [
    {"smiles": "Nc1ncnc2c1ncn2[C@@H]1O[C@H](COP(=O)(O)OP(=O)(O)OP(=O)(O)O)[C@@H](O)[C@H]1O", "note": "[ATP]", "values": [
      {"measurement": "Km", "result": 90, "unit": "µM"}
    ]}
  ]
}
